{"source": "patent US6878388B1", "about": "“Vanadium compounds for treating proliferative cell disorders” (Parker Hughes Institute, priority 2000, dated 2005)", "key": {"[1]": {"tested_on": "U87 cells", "assay": "In vitro invasion assay, Matrigel-coated Boyden chambers, U87", "assay_type": "cell-based, human", "details": "24 h preincubation, 3 experiments, read-out: Mean IC50 inhibition of invasion through Matrigel matrix", "protocol": "Tumor invasion of the basement membrane is a crucial step in the complex multistage process that leads to metastatic spread. Tumor cells cross the basement membrane as they initially invade the lymphatic or vascular beds during dissemination and as they penetrate their target tissues. […]\nInvasion of cancer cells treated with [VO(SO4)(Me2-Phen)2] was assayed using Matrigel-coated Costar 24-well transwell cell culture chambers (“Boyden chambers”) with 8.0-μm-pore polycarbonate filter inserts as described previously (Narla et al., Clin Cancer Res, 4: 2463-2471, 1998; Ghosh et al., Anticancer Drug Des, 14: 403-410, 1999; Albini et al., J Cell Biol, 105: 1867-1872, 1987). […] The cells were trypsinized, washed twice with serum-free medium containing BSA, counted and resuspended in a serum-free medium at 1×10^5 cells/ml. […] The invasive cells that migrated to the lower side of the filter were fixed, stained with Hema-3 solution and counted under a light microscope. Five to 10 random fields per filter were counted to determine the invasive fraction. The invasive fractions of cells treated with [VO(SO4)(Me2-Phen)2] were compared to those of DMSO-treated control cells and the percent inhibition of invasiveness was determined. […]"}, "[2]": {"tested_on": "intracranial U87 glioblastoma", "assay": "Nude mouse model of intracranial glioblastoma", "assay_type": "in vivo, NCr nude mice", "description": "FIG. 2 illustrates the in vivo antitumor activity of [VO(SO4)(Me2-Phen)2] against intracranial U87 glioblastoma in nude mice. A representative survival curve of [VO(SO4)(Me2-Phen)2]-treated (n=8) and control (n=9) mice is shown.\nThe animal protocols used in this study were approved by the Parker Hughes Institute Institutional Animal Care and Use Committee (IACUC). Female CB.17 severe combined immuno-deficient (SCID) and NCr nude mice were obtained from Taconic (Germantown, N.Y.) and housed in a specific pathogen-free room located in a secure indoor facility with controlled temperature, humidity, and noise levels. Mice were housed in microisolater cages and fed with autoclaved rodent chow. Water was also autoclaved and supplemented with trimethoprim/sulfomethoxazol 3 days/week.\nNude mice were anesthetized with Avertin (2,2,2-tribromoethanol in tert-amyl alcohol; Aldrich Chemical Co., Milwaukee, Wis.) at a dose of 0.5 mg/g under aseptic conditions in a laminar flow hood. A small hole was drilled through the skull 2 mm to the right of the midline and 2 mm posterior to the bregma. U87 glioblastoma cells (4×10^5 cells in 10 μl of PBS) were intracranially implanted into the right side of the cerebral hemisphere of the mice using a Hamilton syringe fitted to a stereotaxic apparatus with a mouse adaptor (David Kopf Instruments, Tujunga, Calif.) as described earlier (34). Twenty-four hours after inoculation, mice were treated intraperitoneally with [VO(SO4)(Me2-Phen)2] (10 mg/kg/day, n=10) or vehicle (5% DMSO in PBS, n=11) for ten consecutive days. […] The grains were then fixed in formalin, processed for histopathology and the tumor volumes from histological sections were measured as described earlier (Haung et al., J. Biol Chem, 272; 2927-2935, 1997). the remaining mice were monitored twice a day for survival.\nFollowing intracranial implantation of 4×10^5 U87 glioblastoma cells (in 10 μl of PBS) into the right cerebral hemispheres of NCr […] mice [VO(SO4)(Me2-Phen)2] […] The mice wee monitored twice a day for health status. […]"}}}
{"molecule": "Cc1ccnc2c1ccc1c(C)ccnc12.Cc1ccnc2c1ccc1c(C)ccnc12.O=S(=O)([O-])[O-].[O]=[V+2]", "note": "[[VO(SO4)(Me2-Phen)2], bis(4,7-dimethyl-1,10-phenanthroline) sulfatooxovanadium (IV)]", "values": [{"measurement": "IC50", "setting": "[1]", "value": "780 ± 400", "unit": "nM"}, {"measurement": "mice remaining alive for >24 days", "setting": "[2]; 10 mg/kg/day i.p. for ten consecutive days", "value": "over 60%"}, {"measurement": "median survival time", "setting": "[2]; 10 mg/kg/day i.p. for ten consecutive days, control 19.6±0.6 days, P=0.0002", "value": "24.4 ± 0.8", "unit": "days"}, {"measurement": "average tumor volume, fold less than vehicle-treated control", "setting": "[2]; 17 days after tumor cell inoculation, histological sections, two mice per group", "value": "approximately 2.9 fold"}]}
